Source: US20260159486A1, “BENZO[H]QUINAZOLINE-4-AMINE DERIVATIVES FOR THE TREATMENT OF CANCER” (Redona Therapeutics, Inc., priority 2021, published 2026)

What was measured:
recombinant human CLK3 = target: T1, recombinant human CLK3 (Homo sapiens, UniProt P49761); assay: CLK3 kinase assay (LANCE Ultra); assay type: biochemical; conditions: CLK3 0.5 nM, ATP 300 μM, 3 hours at 30° C.
T1 construct: purchased Thermo Fisher Scientific PV3826
In short: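 Recombinant human CLK3 (0.5 nM) with ULight-CREBtide (50 nM) and 300 μM ATP, 3 h at 30 °C in kinase buffer; EDTA stop, then Eu-anti-phospho-CREB antibody (2 nM, 1 h RT), TR-FRET read at 665/620 nm. Inhibition normalized to DMSO and no-ATP wells; IC50 from 4-parameter fit, ten 1:3 concentrations in duplicate.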

CAL-51 cells = assay: CAL-51 proliferation assay; assay type: cell-based; conditions: YO-PRO-1 Iodide readout
In short: (§1)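 Cells seeded at 750 per well, treated next day for 72 h at 37 °C with 0.5% final DMSO. Cell number read by YO-PRO-1 fluorescence after lysis, normalized to DMSO (100%) and time-zero cells (0%). GI50 from 4-parameter logistic fit, maximum constrained to 100%.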

MDA-MB-231 cells = assay: MDA-MB-231 proliferation assay; assay type: cell-based; conditions: YO-PRO-1 Iodide readout
In short: as §1

T1 sequence (P49761 whole entry): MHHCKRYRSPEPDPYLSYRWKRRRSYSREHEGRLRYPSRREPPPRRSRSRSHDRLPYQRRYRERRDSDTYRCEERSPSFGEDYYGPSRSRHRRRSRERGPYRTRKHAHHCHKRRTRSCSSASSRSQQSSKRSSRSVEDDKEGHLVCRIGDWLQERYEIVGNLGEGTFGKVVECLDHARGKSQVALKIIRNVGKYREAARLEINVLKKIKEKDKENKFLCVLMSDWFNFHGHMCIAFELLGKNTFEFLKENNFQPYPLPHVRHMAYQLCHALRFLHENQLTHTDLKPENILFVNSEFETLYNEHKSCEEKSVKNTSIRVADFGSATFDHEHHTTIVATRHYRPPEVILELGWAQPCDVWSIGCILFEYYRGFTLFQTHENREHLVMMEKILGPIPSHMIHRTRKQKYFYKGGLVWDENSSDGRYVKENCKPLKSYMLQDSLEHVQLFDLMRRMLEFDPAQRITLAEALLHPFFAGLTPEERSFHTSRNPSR

SMILES	IC50 (recombinant human CLK3) [nM]	GI50 (CAL-51 cells; Homo sapiens, CAL-51, 72 h) [nM]	GI50 (MDA-MB-231 cells; Homo sapiens, MDA-MB-231, 72 h) [nM]	GI50 (CAL-51 cells; 72 hours) [nM]	GI50 (MDA-MB-231 cells; 72 hours) [nM]
CC1(C)Cc2c(ccc(Br)c2NC[C@@H]2CNC(=O)O2)-c2ncnc(N)c21 [Example 121, (5R)-5-[[(4-amino-8-bromo-5,5-dimethyl-6H-benzo[h]quinazolin-7-yl)amino]methyl]oxazolidin-2-one]	< 30	< 100	< 100		
CN1CCN(c2ccc3c(c2N(C)CCC#N)CC(C)(C)c2c(N)ncnc2-3)CC1 [Example 118, 3-[[4-amino-5,5-dimethyl-8-(4-methylpiperazin-1-yl)-6H-benzo[h]quinazolin-7-yl]-methyl-amino]propanenitrile]	< 30	< 100	< 100		
CC1(C)Cc2c(ccc3c2NCCO3)-c2ncnc(N)c21 [Example 3, 6,6-dimethyl-2,3,4,5-tetrahydroquinazolino[7,8-f][1,4]benzoxazin-7-amine]	101 to 1000	100 to 2000	> 2000		
CC1(C)Cc2c(ccc(Br)c2NC[C@@H]2CN(CCO)C(=O)O2)-c2ncnc(N)c21 [Example 127, (5R)-5-[[(4-amino-8-bromo-5,5-dimethyl-6H-benzo[h]quinazolin-7-yl)amino]methyl]-3-(2-hydroxyethyl)oxazolidin-2-one]	30 to 100	100 to 2000	100 to 2000		
CC1(C)Cc2c(ccc(O[C@H]3CC[C@@H](N4CCOCC4)CC3)c2NC[C@@H]2CNC(=O)O2)-c2ncnc(N)c21 [Example 130, (5R)-5-[[[4-amino-5,5-dimethyl-8-(cis-4-morpholinocyclohexoxy)-6H-benzo[h]quinazolin-7-yl]amino]methyl]oxazolidin-2-one]	< 30	100 to 2000	> 2000		
C#CCCN(C)c1c(O[C@H]2CC[C@H](N)CC2)ccc2c1CC(C)(C)c1c(N)ncnc1-2 [Example 54, 8-(trans-4-aminocyclohexoxy)-N7-but-3-ynyl-N7,5,5-trimethyl-6H-benzo[h]quinazoline-4,7-diamine]	< 30	< 100	< 100		
COc1ccc2c(c1NCC(O)CO)CC(C)(C)c1c(N)ncnc1-2 (stereo not drawn) [Example 27, 3-[(4-amino-8-methoxy-5,5-dimethyl-6H-benzo[h]quinazolin-7-yl)amino]propane-1,2-diol]	30 to 100	100 to 2000	100 to 2000		
CN(CCCC#N)c1c(O[C@H]2CC[C@H](N)CC2)ccc2c1CC(C)(C)c1c(N)ncnc1-2 [Example 58, 4-[[4-amino-8-(4-trans-aminocyclohexoxy)-5,5-dimethyl-6H-benzo[h]quinazolin-7-yl]-methyl-amino]butanenitrile]	< 30	< 100	100 to 2000		
COC1CCN(c2c(O[C@H]3CC[C@H](N)CC3)ccc3c2CC(C)(C)c2c(N)ncnc2-3)C1 (single isomer, unassigned) [Example 73, 8-(trans-4-aminocyclohexoxy)-7-(3-methoxypyrrolidin-1-yl)-5,5-dimethyl-6H-benzo[h]quinazolin-4-amine]	30 to 100			< 100	< 100
CSCCN(C)c1c(O[C@H]2CC[C@@H](N)CC2)ccc2c1CC(C)(C)c1c(N)ncnc1-2 [Example 31, 8-(cis-4-aminocyclohexoxy)-N7,5,5-trimethyl-N7-(2-methylsulfanylethyl)-6H-benzo[h]quinazoline-4,7-diamine]	30 to 100	< 100	100 to 2000		
COCCN[C@H]1CC[C@H](Oc2ccc3c(c2N(C)CCC#N)CC(C)(C)c2c(N)ncnc2-3)CC1 [Example 53, 3-[[4-amino-8-[trans-4-(2-methoxyethylamino)cyclohexoxy]-5,5-dimethyl-6H-benzo[h]quinazolin-7-yl]-methyl-amino]propanenitrile]	< 30	< 100	< 100		
CC(C)CCN(C)c1c(O[C@H]2CC[C@H](N)CC2)ccc2c1CC(C)(C)c1c(N)ncnc1-2 [Example 104, 8-(trans-4-aminocyclohexoxy)-N7-isopentyl-N7,5,5-trimethyl-6H-benzo[h]quinazoline-4,7-diamine]	101 to 1000	100 to 2000	> 2000		
CCOCCN(C)c1c(O[C@H]2CC[C@H](N)CC2)ccc2c1CC(C)(C)c1c(N)ncnc1-2 [Example 36, 8-(trans-4-aminocyclohexoxy)-N7-(2-ethoxyethyl)-N7,5,5-trimethyl-6H-benzo[h]quinazoline-4,7-diamine]	101 to 1000	100 to 2000	100 to 2000		
CC1(C)Cc2c(ccc(O[C@H]3CC[C@H](N4CCOCC4)CC3)c2NC[C@@H]2CNC(=O)O2)-c2ncnc(N)c21 [Example 131, (5R)-5-[[[4-amino-5,5-dimethyl-8-(trans-4-morpholinocyclohexoxy)-6H-benzo[h]quinazolin-7-yl]amino]methyl]oxazolidin-2-one]	< 30	100 to 2000	100 to 2000		
CC1(C)Cc2c(ccc(O[C@H]3CC[C@H](N)CC3)c2N2CCC(C(N)=O)C2)-c2ncnc(N)c21 (stereo partly drawn) [Example 77, 1-[4-amino-8-(trans-4-aminocyclohexoxy)-5,5-dimethyl-6H-benzo[h]quinazolin-7-yl]pyrrolidine-3-carboxamide]	< 30	100 to 2000	> 2000		
COCCN(C)c1c(O[C@H]2CC[C@@H](N)CC2)ccc2c1CC1(CCCC1)c1c(N)ncnc1-2 [Example 75, 8-(cis-4-aminocyclohexoxy)-N7-(2-methoxyethyl)-N7-methyl-spiro[6H-benzo[h]quinazoline-5,1′-cyclopentane]-4,7-diamine]	< 30	< 100	100 to 2000		
CN(CC#N)c1c(O[C@H]2CC[C@H](N)CC2)ccc2c1CC(C)(C)c1c(N)ncnc1-2 [Example 33, 2-[[4-amino-8-(trans-4-aminocyclohexoxy)-5,5-dimethyl-6H-benzo[h]quinazolin-7-yl]-methyl-amino]acetonitrile]	< 30	< 100	100 to 2000		
CN(C)CCOc1ccc2c(c1N(C)CCC#N)CC(C)(C)c1c(N)ncnc1-2 [Example 123, 3-[[4-amino-8-[2-(dimethylamino)ethoxy]-5,5-dimethyl-6H-benzo[h]quinazolin-7-yl]-methyl-amino]propanenitrile]	< 30	< 100	< 100		
CN(c1c(O[C@H]2CC[C@H](N)CC2)ccc2c1CC(C)(C)c1c(N)ncnc1-2)S(=O)(=O)CCO [Example 44, N-[4-amino-8-(4-trans-aminocyclohexoxy)-5,5-dimethyl-6H-benzo[h]quinazolin-7-yl]-2-hydroxy-N-methyl-ethanesulfonamide]	< 30	100 to 2000	100 to 2000		
CC1(C)C(=O)c2c(ccc(O[C@H]3CC[C@H](N)CC3)c2N)-c2ncnc(N)c21 [Example 34, 4,7-diamino-8-(trans-4-aminocyclohexoxy)-5,5-dimethyl-benzo[h]quinazolin-6-one]	101 to 1000	100 to 2000	100 to 2000		
Nc1ncnc2c1C1(CCCC1)Cc1c-2ccc(O[C@H]2CC[C@@H](N)CC2)c1NCCO [Example 70, 2-[[4-amino-8-(cis-4-aminocyclohexoxy)spiro[6H-benzo[h]quinazoline-5,1′-cyclopentane]-7-yl]amino]ethanol]	< 30	100 to 2000	100 to 2000		
CN(CC#N)S(=O)(=O)c1c(O[C@H]2CC[C@H](N)CC2)ccc2c1CC(C)(C)c1c(N)ncnc1-2 [Example 113, 4-amino-8-(trans-4-aminocyclohexoxy)-N-(cyanomethyl)-N,5,5-trimethyl-6H-benzo[h]quinazoline-7-sulfonamide]	30 to 100	100 to 2000	100 to 2000		
CN(CCNS(C)(=O)=O)c1c(O[C@H]2CC[C@H](N)CC2)ccc2c1CC(C)(C)c1c(N)ncnc1-2 [Example 39, N-[2-[[4-amino-8-(trans-4-aminocyclohexoxy)-5,5-dimethyl-6H-benzo[h]quinazolin-7-yl]-methyl-amino]ethyl]methanesulfonamide]	101 to 1000	100 to 2000	> 2000		
COc1ccc2c(c1N1CC(CO)C1)CC(C)(C)c1c(N)ncnc1-2 [Example 28, [1-(4-amino-8-methoxy-5,5-dimethyl-6H-benzo[h]quinazolin-7-yl)azetidin-3-yl]methanol]	101 to 1000	100 to 2000	100 to 2000		
CC1(C)Cc2c(ccc3c2N(CCC#N)CCO3)-c2ncnc(N)c21 [Example 117, 3-(7-amino-6,6-dimethyl-3,5-dihydro-2H-quinazolino[7,8-f][1,4]benzoxazin-4-yl)propanenitrile]	30 to 100	< 100	100 to 2000		
CCOC(=O)CNc1c(O[C@H]2CC[C@@H](N)CC2)ccc2c1CC1(CCCC1)c1c(N)ncnc1-2 [Example 65, ethyl 2-[[4-amino-8-(cis-4-aminocyclohexoxy)spiro[6H-benzo[h]quinazoline-5,1′-cyclopentane]-7-yl]amino]acetate]	30 to 100	100 to 2000	100 to 2000		
CC1(C)Cc2c(ccc(O[C@H]3CC[C@H](N)CC3)c2NC2CC2)-c2ncnc(N)c21 [Example 84, 8-(trans-4-aminocyclohexoxy)-N7-cyclopropyl-5,5-dimethyl-6H-benzo[h]quinazoline-4,7-diamine]	30 to 100	< 100	100 to 2000		
